Measured values: US8614246B2, “Indole derivatives for treating neurodegenerative diseases” (Centre National de la Recherche Scientifique (CNRS), priority 2009, dated 2013)

Legend:
[1] = tested on: dopaminergic neurons (TH+ neurons) in primary cultures of ventral mesencephalon; test: Neuritogenesis: total neuritic length per dopaminergic neuron in primary cultures of ventral mesencephalon; format: cell-based; conditions: Product 10 nM, 8 days culture, rat embryo ventral mesencephalon; untreated control = 100
Protocol: Dissection. Dissection consists of extracting embryos from the uterus of a rat after fifteen days of gestation. The brain of each embryo is then dissected under magnifying binoculars in order to extract the ventral mesencephalus.
Seeding. Mesencephalons are grouped in a flask containing 2 mL of L15 medium and then mechanically dissociated (30 repeat operations), 5 mL of L15 medium are added. The suspension is allowed to stand for 8 minutes. The 5 mL float is then recovered in a new flask and the cells are dissociated again (30 repeat operations). 5 mL of L15 is added again and the suspension is left to stand for 8 minutes. The 5 mL float is added to the previous float. The cells thus extracted are then centrifuged for 5 minutes at 1000 rpm^−1. The cell sediment is dissolved in a Neurobasal medium supplemented with 1% of B27, 1% of glutamine and 1% of a mixture of penicillin and streptomycin. The cells are then seeded at an appropriate dilution (0.6 embryos per well in 24-well plates and 0.4 per well in 48-well plates). The cultures are incubated at 37° C. in a wet atmosphere enriched with 5% CO2 in 24-well or 48-well plates.
Treatment. After 24 hours, two-thirds of the medium in each well is replaced by a new medium enriched with the product to be tested at the appropriate dilution. The medium is replaced in the same way after 4 days of culture.
Immunohistochemistry. After 8 days culture, the cells are fixed by a solution of 4% formaldehyde and then washed three times with PBS. The cells are then submitted to anti-tyrosine hydroxylase (TH) immunohistochemistry, developed by a secondary antibody coupled to a fluorophore emitting in the red (Cy3).
Analyses. Neuroprotection is evaluated by counting positive TH neurons with 10 fields per well directly under an inverted fluorescence microscope, reported as a percentage of the untreated control. Experiments are done on three wells per condition. Three independent experiments are done under these conditions. The total neuritic length per cell is calculated using Explora Nova's Neurite Outgrowth software on 60 to 100 neurons photographed independently per condition.
Primary cultures of ventral mesencephalon of rat embryos after 15.5 days of gestation under conditions causing spontaneous death of dopaminergic neurons, are maintained in the presence or absence of the compounds to be tested for 8 days. After fixing, the cultures are submitted to immunocytochemistry directed against tyrosine hydroxylase, a specific marker of dopaminergic neurons.
Neuritogenesis is quantified by measuring the total neuritic length per dopaminergic neuron (neuritic length/TH^+ neuron) using an image analyser on a minimum of sixty photographed neurons per condition (10-30% of all dopaminergic neurons).
All experiments were done by comparison with a positive control, dibutyryl-AMP cyclic (db-AMPc) (Mourlevat S. et al. Mol. Pharmacol. 2003, 64 (3), 578-586).

[2] = Study of the passage through the blood-brain barrier (HPLC-MS/MS of brain extracts); format: in vivo, mice; conditions: for average concentration of compound 2c in brain extracts: 5-day sub-chronic, ± SEM, n=8
Protocol: The purpose of this study is to use HPLC coupled with a mass spectrometer to verify the presence of molecule 2c according to the invention […] hydrochloride of molecule 2c (2c/HCl) by oral or intra-peritoneal (IP)pathway.
Animals: Male RjOrl: SWISS mice approximately 5 weeks old and weighing between 20 and 24 g on arrival (from the R Janvier Breeding Centre, France) are kept in the animal house at constant temperature (22±1° C.) and under controlled hygrometry (55±20%) with a 12 hours light/darkness cycle (8 h00-20 h00). The mice were allowed free access to food and drink during the acclimatisation and study period. All experiments took place in accordance with the conditions defined in decree No. 2001-464, May 29, 2001 dealing with experiments on animals.
Treatments: Two 5-day sub-chronic treatments were done (oral or intra-peritoneal pathway): • Treatment by Intra-Peritoneal Pathway (IP):
The solution of hydrochloride of 2c/HCl to be injected is prepared in the carrier (10% Tween20+20% DMSO+70% NaCl at 09% in water) at a concentration of 2.0 g/L. Three groups were formed: • (1) mice that received the carrier through the IP pathway, at 10 mL/kg (group N, n=4), • (2) mice treated with 2c/HCl by IP pathway, at 20 mg/kg and at 10 mL/kg (group R, n=6), and • (3) Control mice that received no treatment (n=2).
The treated mice R4, R5 and R6 and the carrier mice N1, N2, N3 and N4 received the following treatments:
The solution of hydrochloride of 2c to be administered is prepared in the carrier (0.5% Tween80+99.5% carboxy-methyl cellulose at 1%, in 0.9% NaCl in water) at a concentration of 15.0 g/L.
(2) mice treated with 2c/HCl by oral pathway at 150 mg/kg and at 10 mL/kg (Group B, n=6), and
All mice were treated twice per day for 4 days. On the 5th day, they received a final treatment and were euthanized between 3 h00 and 7 h30 after this last treatment, according to the following scheme:
Euthanasia: The mice are anaesthetised by the injection of 0.1 mL of a solution of sodium pentobarbital at 6% and an perfusion is then done on the mice so as to remove all traces of blood from the brain, with an 0.9% NaCl solution that contains heparin (200 μL of heparin choay at 5000 UI/mL in 1 liter of 0.9% NaCl). An perfusion with a minimum of 50 mL of this solution is done on each animal. The mouse brain is removed. The cerebellum, the brain stem and olfactory bulbs are eliminated.
The 3 parts of the brain are frozen in isopentane at −30° C. for one minute, and then kept separately at −80° C. […]
However, only parts 1 of the mice brains were extracted and analysed so as to keep samples for future analyses. […]
Instrumentation and conditions for analysis of compound 2c: Detection and quantification based on the area of the peaks are done using HPLC-MS/MS, in MRM mode. […]

Which “Neuritic length/TH+ neuron, % relative to control ± SEM” value [1] does the source give for `CCCCCCCCCCCCCCCCNCCc1c[nH]c2ccccc12` [Compound 2c, N-(2-(1H-indol-3-yl)ethyl)hexadecan-1-amine] here?
Its value is 197.0 ± 14.0 %.

What about the “average concentration of compound 2c in brain extracts” value ([2]; mice, IP, 2c/HCl 20 mg/kg) of the same molecule?
Its value is 14.73 ng/mL.

And the “crossing of the BBB in vivo” value ([2]; mice, after IP and after per os administration of 2c/HCl)?
Its value is “capable of crossing the BBB in vivo”.

And the “average concentration of compound 2c in brain extracts” value ([2]; mice, per os, 2c/HCl 150 mg/kg twice per day (300 mg/kg/d))?
Its value is 21.25 ng/mL.

And the “brain concentration after per os treatment relative to IP treatment” value ([2]; per os 300 mg/kg/d vs IP 20 mg/kg/d)?
The value was “about 1.5 times”.
